Source: US20260103465A1, “GLYCOGEN SYNTHASE KINASE 3 INHIBITORS AND USES THEREOF” (The Broad Institute, Inc., priority 2023, published 2026)
Read-outs that look alike come from different tables or passages of the source.

Assays:
[1] = target: T1, GSK3a (GST-full length GSK3a) (Homo sapiens, UniProt P49840); experiment: GSK3a TR-FRET kinase inhibition assay; assay type: biochemical
T1 construct: GST-full length GSK3a [SignalChem G08-10G]; purchased SignalChem G08-10G
Procedure, shortened: (§1)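 GST-tagged full-length human kinase (1 nM), pre-incubated 30 min with compound, then reacted 100 min at ambient temperature at pH 7.5 with 200 nM biotinylated phospho-S645 glycogen synthase 631–650 peptide and ATP at 2 μM–1 mM. After EDTA quench, Tb-pSer641 antibody/streptavidin-d2 TR-FRET 665/615 ratio fitted for IC50.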

[2] = Human liver microsomal stability; assay type: in vitro ADME; details: human liver microsomes
Method: Stability of compound (5 μL of a 10 mM DMSO solution) in human liver microsomes was tested in duplicate by incubating compound at 1 μM for 60 minutes at 37° C. Compound level at 60 minutes was compared to level at 0 minutes, and percent remaining was calculated. Order by selecting Microsomal Stability in Prometheus, checking boxes for desired species. Assay Controls: microsomes with NADPH without compound-matrix interference. Microsomes plus compound without NADPH—non-enzymatic instability.

[3] = target: T2, GSK3b (GST-full length GSK3b) (Homo sapiens, UniProt P49841); experiment: GSK3b TR-FRET kinase inhibition assay; assay type: biochemical
T2 construct: GST-full length GSK3b: [SignalChem G08-9G]; purchased SignalChem G08-9G
Procedure, shortened: as §1

[4] = tested on: MDR1-MDCK cell monolayers; experiment: MDR1/MDCK permeability assay; assay type: in vitro ADME; details: for MDCK Permeability (MDR1-MDCK); Mean; Papp(A-B) (10^−6 cm/s): A to B; for MDCK Permeability (MDR1-MDCK); Mean; Papp(B-A) (10^−6 cm/s): B to A; for MDCK Permeability (MDR1-MDCK); Mean; P. Ratio(B-A/A-B) Efflux Ratio / MIDCK Permeability (MDR1-MDCK); Mean; P. Ratio(B-A/A-B) Efflux Ratio: Papp B-A/A-B
From the text: The MDR1/MDCK assay is run at WuXi and Absorption Systems. This assay is used to determine the blood-brain barrier (BBB) penetration potential of a test compound using MDR1-MDCK cell monolayers. Catalog number EA203.
• The percent recovery of the test compound from the Transwell® wells containing MDR1-MDCK cell monolayers • The apparent permeability (Papp) in both directions • The efflux ratio (Papp B to A)/(Papp A to B) • The blood-brain barrier penetration potential classification: • High when • Papp A to B≥3.0×10^−6 cm/s, and efflux<3.0 • Moderate when • Papp A to B≥3.0×10^−6 cm/s, and 10>efflux≥3.0 • Low when either • Papp A to B≥3.0×10^−6 cm/s, and […], or when • Papp A to B<[…].
• Test compound at 5 μM in HBSSg with maximum DMSO concentration not greater than 1%.
• Confluent monolayers of MDR1-MDCK cells, 7 to 11 days old.
• Receiver well with 1% BSA in modified Hanks buffer (HBSSg) • Apical and basolateral side at pH 7.4 • Dose two monolayers in each direction (N=2) • Dose apical side for (A to B) assessment • Dose basolateral side for (B to A) assessment • Sample both apical and basolateral sides at 120 minutes • Determine the concentrations of test compound using a generic LC-MS/MS method with a minimum 4 point calibration curve.
• The quality of the cell monolayer batch is verified using control compounds before monolayers are released for use • The quality of each monolayer used in the assay is verified by a TEER measurement and by calculating the Papp for a control compound.

[5] = 4 μM ATP, read-out: GSK3α TR-FRET 4 μM ATP GMean IC50
[6] = 2 μM ATP, read-out: GSK3β TR-FRET 2 μM ATP GMean IC50
[7] = 10 μM ATP, read-out: GSK3a 10 μM ATP Average IC50
[8] = 1 mM ATP, Table 3, read-out: GSK3a TR-FRET 1 mM ATP Average IC50
[9] = 10 μM ATP, read-out: GSK3b 10 μM ATP Average IC50
[10] = 100 μM ATP, read-out: GSK3b 100 μM ATP Average IC50
[11] = 1 mM ATP, Table 3, read-out: GSK3b TR-FRET 1 mM ATP Average IC50
[12] = 100 μM ATP, read-out: GSK3a 100 μM ATP Average IC50
[13] = 1 mM ATP, Table 4, read-out: GSK3α TR-FRET 1 mM ATP GMean IC50
[14] = 1 mM ATP, Table 4, read-out: GSK3β TR-FRET 1 mM ATP GMean IC50

T2 sequence (P49841 whole entry): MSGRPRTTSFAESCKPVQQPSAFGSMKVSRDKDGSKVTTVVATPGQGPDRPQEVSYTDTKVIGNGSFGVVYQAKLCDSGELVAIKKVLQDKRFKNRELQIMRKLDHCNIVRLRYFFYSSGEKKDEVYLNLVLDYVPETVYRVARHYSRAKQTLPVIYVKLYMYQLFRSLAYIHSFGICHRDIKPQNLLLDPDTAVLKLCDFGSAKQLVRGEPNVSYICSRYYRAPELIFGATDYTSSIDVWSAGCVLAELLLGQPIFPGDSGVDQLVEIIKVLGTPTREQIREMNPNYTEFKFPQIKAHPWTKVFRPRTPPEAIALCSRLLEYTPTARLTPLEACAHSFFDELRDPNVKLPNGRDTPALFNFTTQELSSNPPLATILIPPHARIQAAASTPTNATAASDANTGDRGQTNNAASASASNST
T1 sequence (P49840 whole entry): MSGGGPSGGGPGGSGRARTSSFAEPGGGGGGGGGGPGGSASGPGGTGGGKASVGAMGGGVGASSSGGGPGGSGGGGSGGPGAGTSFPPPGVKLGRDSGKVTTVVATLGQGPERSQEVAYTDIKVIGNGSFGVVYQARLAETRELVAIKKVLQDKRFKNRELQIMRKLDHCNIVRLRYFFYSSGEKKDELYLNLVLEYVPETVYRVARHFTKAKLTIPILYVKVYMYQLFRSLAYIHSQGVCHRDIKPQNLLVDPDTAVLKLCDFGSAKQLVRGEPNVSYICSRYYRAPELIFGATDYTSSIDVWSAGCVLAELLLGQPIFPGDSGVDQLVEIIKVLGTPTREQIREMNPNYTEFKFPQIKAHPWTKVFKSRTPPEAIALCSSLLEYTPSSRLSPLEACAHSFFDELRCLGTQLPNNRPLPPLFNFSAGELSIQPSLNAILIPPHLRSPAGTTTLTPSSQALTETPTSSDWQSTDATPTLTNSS

SMILES | IC50 [1, 5] [nM] | Microsome Stability (Human) (DMPK_BIIB); Mean; in vitro t1/2 ([2]; Table 4) [min] | IC50 [3, 6] [nM] | MDCK Permeability (MDR1-MDCK); Mean; Papp(A-B) (10^−6 cm/s) ([4]; Table 4) | MDCK Permeability (MDR1-MDCK); Mean; Papp(B-A) (10^−6 cm/s) ([4]; Table 4) | MDCK Permeability (MDR1-MDCK); Mean; P. Ratio(B-A/A-B) Efflux Ratio ([4]; Table 4) | IC50 [1, 7] [nM] | IC50 [1, 8] [nM] | Microsome Stability (Human) (DMPK_BIIB); Mean; in vitro t1/2 ([2]; Table 3) [min] | IC50 [3, 9] [nM] | IC50 [3, 10] [nM] | IC50 [3, 11] [nM] | MDCK Permeability (MDR1-MDCK); Mean; Papp(A-B) (10^−6 cm/s) ([4]; Table 3) | MDCK Permeability (MDR1-MDCK); Mean; Papp(B-A) (10^−6 cm/s) ([4]; Table 3) | MIDCK Permeability (MDR1-MDCK); Mean; P. Ratio(B-A/A-B) Efflux Ratio ([4]; Table 3) | IC50 [1, 12] [nM] | IC50 [1, 13] [nM] | IC50 [3, 14] [nM]
CC(C)(C)Cc1cnc2c(c1)C(C)(c1ccccc1)C1=C(CC(C)(C)CC1=O)N2 (single isomer, unassigned) [Compound 129B] |  |  |  |  |  |  | 20000 to 60000 | 5000 to 20000 | 1.1 | 5000 to 20000 | 20000 to 60000 | 5000 to 20000 | 1.8 10^−6 cm/s | 1.0 10^−6 cm/s | 0.59 |  |  | 
CCC1(c2ccccc2)C2=C(CC(C)(C)NC2=O)Nc2ncc(F)cc21 (single isomer, unassigned) [Compound 1007B] | ≤ 100 | 211 | ≤ 100 | 7.8 10^−6 cm/s | 45 10^−6 cm/s | 5.7 |  |  |  |  |  |  |  |  |  |  | 1000 to 5000 | 5000 to 20000
CCC1(c2cccc(-c3cn(C)nc3C)c2)C2=C(CC(C)(C)CC2=O)Nc2ncc(F)cc21 (single isomer, unassigned) [Compound 1032B] | ≤ 100 | 6.4 | ≤ 100 | 2.3 10^−6 cm/s | 26 10^−6 cm/s | 11 |  |  |  |  |  |  |  |  |  |  |  | 
CC(C)(C)Cc1cnccc1-c1cccc(C2(C)C3=C(CC(C)(C)CC3=O)Nc3ncc(F)cc32)c1 (single isomer, unassigned) [Compound 168A] |  |  |  |  |  |  |  | 100 to 1000 | 33 |  |  | 100 to 1000 | 2.5 10^−6 cm/s | 2.2 10^−6 cm/s | 0.90 |  |  | 
CC(C)(C)Cc1cnc2c(c1)C(C)(c1ccccc1)C1=C(CC(C)(C)CC1=O)N2 (single isomer, unassigned) [Compound 129A] |  |  |  |  |  |  | 20000 to 60000 |  | 11 | 5000 to 20000 | 20000 to 60000 | 5000 to 20000 | 2.1 10^−6 cm/s | 1.2 10^−6 cm/s | 0.60 |  |  | 
CCC1(c2ccccc2)C2=C(CC3(CCC3)CC2=O)Nc2ncc(F)cc21 (single isomer, unassigned) [Compound 1008B] | 1000 to 5000 | 1.6 | 1000 to 5000 | 21 10^−6 cm/s | 31 10^−6 cm/s | 1.5 |  |  |  |  |  |  |  |  |  |  |  | 
CCC1(c2ccccc2)C2=C(CC3(CCC3)CC2=O)Nc2ncccc21 (single isomer, unassigned) [Compound 110B] |  | 1.7 |  | 13 10^−6 cm/s | 27 10^−6 cm/s | 2.1 |  |  |  |  |  |  |  |  |  |  |  | 
CCC1(c2ccccc2)C2=C(CC(C)(C)CC2=O)Nc2ncc(C(F)(F)F)cc21 (single isomer, unassigned) [Compound 133B] |  | 73 |  | 11 10^−6 cm/s | 16 10^−6 cm/s | 1.5 |  |  |  |  |  |  |  |  |  |  |  | 
CCC1(c2ccccc2)C2=C(CC(C)(C)CC2=O)Nc2ncc(F)cc21 (single isomer, unassigned) [Compound 114B] |  | 1.7 |  | 12 10^−6 cm/s | 24 10^−6 cm/s | 2.1 |  |  |  |  |  |  |  |  |  |  |  | 

Second part, the molecule after the results:

IC50 [1, 5] [nM] | Microsome Stability (Human) (DMPK_BIIB); Mean; in vitro t1/2 ([2]; Table 4) [min] | IC50 [3, 6] [nM] | MDCK Permeability (MDR1-MDCK); Mean; Papp(A-B) (10^−6 cm/s) ([4]; Table 4) | MDCK Permeability (MDR1-MDCK); Mean; Papp(B-A) (10^−6 cm/s) ([4]; Table 4) | MDCK Permeability (MDR1-MDCK); Mean; P. Ratio(B-A/A-B) Efflux Ratio ([4]; Table 4) | IC50 [1, 7] [nM] | IC50 [1, 8] [nM] | Microsome Stability (Human) (DMPK_BIIB); Mean; in vitro t1/2 ([2]; Table 3) [min] | IC50 [3, 9] [nM] | IC50 [3, 10] [nM] | IC50 [3, 11] [nM] | MDCK Permeability (MDR1-MDCK); Mean; Papp(A-B) (10^−6 cm/s) ([4]; Table 3) | MDCK Permeability (MDR1-MDCK); Mean; Papp(B-A) (10^−6 cm/s) ([4]; Table 3) | MIDCK Permeability (MDR1-MDCK); Mean; P. Ratio(B-A/A-B) Efflux Ratio ([4]; Table 3) | IC50 [1, 12] [nM] | IC50 [1, 13] [nM] | IC50 [3, 14] [nM] | SMILES
≤ 100 | 19 | ≤ 100 | 6.2 10^−6 cm/s | 22 10^−6 cm/s | 3.6 |  |  |  |  |  |  |  |  |  |  |  |  | CCC1(c2cccc(-c3ccncc3C)c2)C2=C(CC(C)(C)CC2=O)Nc2ncc(F)cc21 (single isomer, unassigned) [Compound 1031B]
≤ 100 | 16 | ≤ 100 | 0.90 10^−6 cm/s | 41 10^−6 cm/s | 43 |  |  |  |  |  |  |  |  |  |  |  |  | CCC1(c2cccc(-c3cncn3C(C)C)c2)C2=C(CC(C)(C)CC2=O)Nc2ncc(F)cc21 (single isomer, unassigned) [Compound 1038A]
≤ 100 | 9.9 | ≤ 100 | 2.3 10^−6 cm/s | 41 10^−6 cm/s | 18 | ≤ 100 | 100 to 1000 | 16 | ≤ 100 | ≤ 100 | 100 to 1000 |  |  |  | ≤ 100 | ≤ 100 | 100 to 1000 | CCC1(c2cccc(-c3cncn3C(C)C)c2)C2=C(CC(C)(C)CC2=O)Nc2ncccc21 (single isomer, unassigned) [Compound 149A]
≤ 100 | 6.2 | 100 to 1000 | 6.9 10^−6 cm/s | 32 10^−6 cm/s | 4.6 |  |  |  |  |  |  |  |  |  |  |  |  | CCC1(c2cccc(-c3ccncc3)c2)C2=C(CC(C)(C)CC2=O)Nc2ncccc21 (single isomer, unassigned) [Compound 1017A]
 |  |  |  |  |  | ≤ 100 | 1000 to 5000 | 14 | ≤ 100 | 100 to 1000 | 1000 to 5000 | 22 10^−6 cm/s | 19 10^−6 cm/s | 0.87 | 100 to 1000 |  |  | CCC1(c2ccccc2)C2=C(CC(C)(C)CC2=O)Nc2ncccc21 (single isomer, unassigned) [Compound 102A]
≤ 100 | 3.1 | 100 to 1000 | 5.1 10^−6 cm/s | 30 10^−6 cm/s | 5.8 |  |  |  |  |  |  |  |  |  |  |  |  | CCC1(c2cccc(-c3cc(C)ncc3C)c2)C2=C(CC(C)(C)CC2=O)Nc2ncccc21 (single isomer, unassigned) [Compound 1027B]
≤ 100 | 6.6 | ≤ 100 | 3.1 10^−6 cm/s | 25 10^−6 cm/s | 8.3 |  | 5000 to 20000 |  |  |  | 5000 to 20000 |  |  |  |  | ≤ 100 | 100 to 1000 | CCC1(c2cccc(-c3c(F)cncc3OC)c2)C2=C(CC(C)(C)CC2=O)Nc2ncccc21 (single isomer, unassigned) [Compound 154B]
